Test results as given in patent publication US20260365670A1, “EGFR INHIBITORS AND USES THEREOF” (DIZAL (JIANGSU) PHARMACEUTICAL CO., LTD., priority 2022, published 2026).
Like-named read-outs stand apart in the source and are kept apart here.

Tests used:
[1] = target: T1, EGFR L858R (Homo sapiens, UniProt P00533, L858R); experiment: Inhibition of EGFR L858R biochemical enzymatic activity (HTRF); details: 1 mM ATP, 1 h, room temperature, read-out: IC50 (nM) @L858R
T1 construct: purchased Carna Bio
How it was run: (§1)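 Enzyme preincubated with compound, then ATP (1 mM) and TK substrate-biotin (1 μM) added; 1 h RT; stopped with EDTA-containing detection mix; HTRF read (ex 320, em 615/665 nm); IC50 by 4-parameter logistic fit.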

[2] = target: T2, EGFR[T790M/C797S/L858R] (Homo sapiens, UniProt P00533, C797S/L858R/T790M); experiment: Inhibition of EGFR[T790M/C797S/L858R] biochemical enzymatic activity (HTRF); details: EGFR T790M-C797S-L858R, 1 mM ATP, 1 h, room temperature, read-out: IC50 (nM) @T790M- C797S - L858R
T2 construct: purchased Carna Bio
How it was run: as §1

[3] = target: T3, EGFR L858R/T790M (Homo sapiens, UniProt P00533, L858R/T790M); experiment: Inhibition of EGFR L858R/T790M biochemical enzymatic activity (HTRF); details: EGFR L858R-T790M, 1 mM ATP, 1 h, room temperature, read-out: IC50 (nM) @L858R-T790M
T3 construct: purchased Carna Bio
T3 sequence (P00533 25-1210 T790M/L858R): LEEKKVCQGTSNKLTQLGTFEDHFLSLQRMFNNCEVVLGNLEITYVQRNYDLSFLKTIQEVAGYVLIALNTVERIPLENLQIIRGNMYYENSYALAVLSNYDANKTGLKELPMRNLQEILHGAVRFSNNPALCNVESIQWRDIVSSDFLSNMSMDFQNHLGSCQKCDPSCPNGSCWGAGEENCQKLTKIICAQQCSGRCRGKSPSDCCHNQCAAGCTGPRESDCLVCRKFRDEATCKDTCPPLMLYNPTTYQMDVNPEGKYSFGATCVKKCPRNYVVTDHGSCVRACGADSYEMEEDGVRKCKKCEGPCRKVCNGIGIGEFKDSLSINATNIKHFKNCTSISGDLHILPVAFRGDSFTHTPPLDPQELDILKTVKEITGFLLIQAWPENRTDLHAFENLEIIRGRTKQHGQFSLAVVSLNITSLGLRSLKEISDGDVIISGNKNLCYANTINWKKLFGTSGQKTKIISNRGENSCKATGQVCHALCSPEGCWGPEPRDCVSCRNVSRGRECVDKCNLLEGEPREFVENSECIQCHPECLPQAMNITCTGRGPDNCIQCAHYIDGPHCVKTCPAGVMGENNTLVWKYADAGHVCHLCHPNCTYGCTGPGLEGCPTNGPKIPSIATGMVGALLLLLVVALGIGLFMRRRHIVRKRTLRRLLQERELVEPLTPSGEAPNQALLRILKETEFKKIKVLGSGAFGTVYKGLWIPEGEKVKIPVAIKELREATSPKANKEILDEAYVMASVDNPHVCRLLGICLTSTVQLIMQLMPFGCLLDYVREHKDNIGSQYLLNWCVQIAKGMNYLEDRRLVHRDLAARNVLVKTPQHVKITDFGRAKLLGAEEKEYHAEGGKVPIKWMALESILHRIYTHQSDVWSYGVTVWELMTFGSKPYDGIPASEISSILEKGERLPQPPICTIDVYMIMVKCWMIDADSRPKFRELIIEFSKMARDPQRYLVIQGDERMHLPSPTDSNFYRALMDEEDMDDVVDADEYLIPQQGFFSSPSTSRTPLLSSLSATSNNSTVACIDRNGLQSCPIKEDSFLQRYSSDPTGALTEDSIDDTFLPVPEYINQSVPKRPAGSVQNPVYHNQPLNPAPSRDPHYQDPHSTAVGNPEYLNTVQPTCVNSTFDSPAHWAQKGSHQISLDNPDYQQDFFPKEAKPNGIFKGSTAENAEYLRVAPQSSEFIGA
How it was run: as §1

[4] = test system: PC-9; experiment: Cell proliferation assay, PC-9 cells (CellTiter-Glo, 72 hours); format: cell-based; details: PC9 cells, CellTiter-Glo, read-out: PC9 GI50
How it was run: (§2)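 Growth over 72 h was quantified by CellTiter-Glo luminescence, normalised as (G3 − G0)/(DMSO G3 − G0), for PC-9 cells seeded at 500/well and EGFR-mutant Ba/F3 cells at 5000/well in RPMI1640. Compound concentration series added after overnight incubation; GI50 obtained from best-fit curves.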

[5] = target: T4, EGFR wild type (Homo sapiens, UniProt P00533); experiment: Inhibition of EGFR wild type biochemical enzymatic activity (HTRF); details: EGFR WT, 1 mM ATP, 1 h, room temperature, read-out: IC50 (nM) @WT
T4 construct: purchased Carna Bio
How it was run: as §1

[6] = target: T5, EGFR Exon19Del/T790M (Homo sapiens, UniProt P00533, DEL746-750/T790M); experiment: Inhibition of EGFR Exon19Del/T790M biochemical enzymatic activity (HTRF); details: EGFR Del19-T790M, 1 mM ATP, 1 h, room temperature, read-out: IC50 (nM) @Del19-T790M
T5 construct: purchased Carna Bio
T5 sequence (P00533 with tags, fused parts or gaps DEL746-750/T790M limits assumed): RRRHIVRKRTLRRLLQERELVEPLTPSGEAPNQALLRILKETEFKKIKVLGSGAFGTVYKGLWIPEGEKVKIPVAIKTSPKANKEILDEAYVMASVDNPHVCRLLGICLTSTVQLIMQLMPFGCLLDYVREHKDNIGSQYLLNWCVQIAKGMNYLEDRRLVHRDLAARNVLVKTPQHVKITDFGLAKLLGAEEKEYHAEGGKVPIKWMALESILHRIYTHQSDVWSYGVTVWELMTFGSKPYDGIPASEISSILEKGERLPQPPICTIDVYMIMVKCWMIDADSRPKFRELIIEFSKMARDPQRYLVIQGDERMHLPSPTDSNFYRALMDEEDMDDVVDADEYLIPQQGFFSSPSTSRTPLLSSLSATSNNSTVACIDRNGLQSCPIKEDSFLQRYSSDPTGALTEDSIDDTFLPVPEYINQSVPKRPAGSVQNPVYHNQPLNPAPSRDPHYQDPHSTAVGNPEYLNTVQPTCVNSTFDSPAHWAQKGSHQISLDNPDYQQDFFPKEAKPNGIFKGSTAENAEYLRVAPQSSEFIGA
How it was run: as §1

[7] = target: T6, EGFR Exon19Del (Homo sapiens, UniProt P00533, DEL746-750); experiment: Inhibition of EGFR Exon19Del biochemical enzymatic activity (HTRF); details: EGFR Del19, 1 mM ATP, 1 h, room temperature, read-out: IC50 @Del19
T6 construct: purchased Carna Bio
T6 sequence (P00533 with tags, fused parts or gaps DEL746-750 limits assumed): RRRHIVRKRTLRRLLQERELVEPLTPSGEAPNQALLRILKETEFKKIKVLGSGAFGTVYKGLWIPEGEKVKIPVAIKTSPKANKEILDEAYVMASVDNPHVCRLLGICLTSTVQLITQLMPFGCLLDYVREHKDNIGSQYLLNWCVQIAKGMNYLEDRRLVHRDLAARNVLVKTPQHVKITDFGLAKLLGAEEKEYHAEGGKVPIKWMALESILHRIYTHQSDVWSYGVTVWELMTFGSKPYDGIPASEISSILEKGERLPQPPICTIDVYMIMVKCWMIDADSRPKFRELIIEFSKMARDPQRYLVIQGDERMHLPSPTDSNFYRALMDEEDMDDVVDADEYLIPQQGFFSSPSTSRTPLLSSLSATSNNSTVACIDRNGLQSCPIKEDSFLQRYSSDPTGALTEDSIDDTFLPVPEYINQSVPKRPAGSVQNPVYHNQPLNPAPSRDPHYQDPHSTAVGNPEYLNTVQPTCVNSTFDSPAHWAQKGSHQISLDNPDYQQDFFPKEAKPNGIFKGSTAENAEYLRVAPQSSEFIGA
How it was run: as §1

[8] = target: T7, EGFR[T790M/C797S/d746-750] (Homo sapiens, UniProt P00533, C797S/DEL746-750/T790M); experiment: Inhibition of EGFR[T790M/C797S/d746-750] biochemical enzymatic activity (HTRF); details: EGFR T790M-C797S-Del19, 1 mM ATP, 1 h, room temperature, read-out: IC50 (nM) @T790M - C797S - Del19
T7 construct: purchased Carna Bio
T7 sequence (P00533 with tags, fused parts or gaps DEL746-750/T790M/C797S limits assumed): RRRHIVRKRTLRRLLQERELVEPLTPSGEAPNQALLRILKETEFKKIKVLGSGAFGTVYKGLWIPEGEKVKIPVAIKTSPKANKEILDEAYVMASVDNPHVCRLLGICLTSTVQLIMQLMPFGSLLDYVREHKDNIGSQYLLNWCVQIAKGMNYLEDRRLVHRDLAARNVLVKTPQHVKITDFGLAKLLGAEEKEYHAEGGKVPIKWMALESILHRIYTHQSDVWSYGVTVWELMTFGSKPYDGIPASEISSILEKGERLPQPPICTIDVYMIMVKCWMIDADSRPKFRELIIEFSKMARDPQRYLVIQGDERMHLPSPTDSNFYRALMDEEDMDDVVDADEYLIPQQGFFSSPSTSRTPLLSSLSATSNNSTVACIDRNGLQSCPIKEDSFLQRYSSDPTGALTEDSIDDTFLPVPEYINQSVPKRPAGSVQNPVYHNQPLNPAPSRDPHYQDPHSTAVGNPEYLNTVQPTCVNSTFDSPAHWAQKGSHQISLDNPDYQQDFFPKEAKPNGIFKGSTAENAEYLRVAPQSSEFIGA
How it was run: as §1

[9] = target: T8, EGFR (C797S L858R) (Homo sapiens, UniProt P00533, C797S/L858R); experiment: Inhibition of EGFR (C797S L858R) biochemical enzymatic activity (HTRF); details: EGFR L858-C797S, 1 mM ATP, 1 h, room temperature, read-out: IC50 (nM) @L858-C797S
T8 construct: purchased signalchem
T8 sequence (P00533 25-1210 C797S/L858R): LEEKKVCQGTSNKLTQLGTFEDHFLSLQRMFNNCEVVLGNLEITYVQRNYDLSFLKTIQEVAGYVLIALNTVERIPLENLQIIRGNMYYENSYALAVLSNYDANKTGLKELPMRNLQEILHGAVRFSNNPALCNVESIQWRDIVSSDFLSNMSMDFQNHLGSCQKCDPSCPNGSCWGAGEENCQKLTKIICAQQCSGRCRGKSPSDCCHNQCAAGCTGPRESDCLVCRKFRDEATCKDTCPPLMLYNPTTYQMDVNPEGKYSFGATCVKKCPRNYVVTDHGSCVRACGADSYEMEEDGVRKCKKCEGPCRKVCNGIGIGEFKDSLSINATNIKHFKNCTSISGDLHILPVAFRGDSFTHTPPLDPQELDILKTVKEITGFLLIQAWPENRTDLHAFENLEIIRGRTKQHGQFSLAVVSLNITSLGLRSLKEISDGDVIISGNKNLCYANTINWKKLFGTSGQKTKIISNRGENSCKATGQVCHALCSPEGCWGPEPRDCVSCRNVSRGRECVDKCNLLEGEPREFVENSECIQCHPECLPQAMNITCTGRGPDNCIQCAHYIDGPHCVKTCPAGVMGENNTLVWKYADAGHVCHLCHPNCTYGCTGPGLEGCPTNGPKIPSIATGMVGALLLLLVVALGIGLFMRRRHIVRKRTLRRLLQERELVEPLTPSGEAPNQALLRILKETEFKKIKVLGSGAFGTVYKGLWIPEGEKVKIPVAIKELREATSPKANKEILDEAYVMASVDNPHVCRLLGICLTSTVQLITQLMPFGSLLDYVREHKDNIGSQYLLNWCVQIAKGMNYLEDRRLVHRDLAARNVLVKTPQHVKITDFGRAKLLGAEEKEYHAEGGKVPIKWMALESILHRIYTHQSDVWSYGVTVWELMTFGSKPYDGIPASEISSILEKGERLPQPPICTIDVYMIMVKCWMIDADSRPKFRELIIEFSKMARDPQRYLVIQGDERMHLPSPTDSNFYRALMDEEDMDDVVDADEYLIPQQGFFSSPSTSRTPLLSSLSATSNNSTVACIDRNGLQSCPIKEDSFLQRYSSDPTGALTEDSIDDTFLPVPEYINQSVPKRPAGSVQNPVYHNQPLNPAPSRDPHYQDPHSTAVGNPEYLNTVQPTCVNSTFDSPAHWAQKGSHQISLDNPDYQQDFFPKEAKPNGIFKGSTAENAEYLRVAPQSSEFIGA
How it was run: as §1

[10] = test system: A-431; experiment: Cell proliferation GI50, A-431 cells (Table 6); format: cell-based
[11] = test system: Ba/F3 cells expressing EGFR mutations; experiment: Cell proliferation assay, Ba/F3 cells expressing EGFR mutations (CellTiter-Glo, 72 hours); format: cell-based; details: CellTiter-Glo
How it was run: as §2

[12] = target: T9, EGFR (d746-750 C797S) (Homo sapiens, UniProt P00533, C797S/DEL746-750); experiment: Inhibition of EGFR (d746-750 C797S) biochemical enzymatic activity (HTRF); details: EGFR Del19-C797S, 1 mM ATP, 1 h, room temperature, read-out: IC50 (nM) @Del19-C797S
T9 construct: purchased signalchem
T9 sequence (P00533 with tags, fused parts or gaps DEL746-750/C797S limits assumed): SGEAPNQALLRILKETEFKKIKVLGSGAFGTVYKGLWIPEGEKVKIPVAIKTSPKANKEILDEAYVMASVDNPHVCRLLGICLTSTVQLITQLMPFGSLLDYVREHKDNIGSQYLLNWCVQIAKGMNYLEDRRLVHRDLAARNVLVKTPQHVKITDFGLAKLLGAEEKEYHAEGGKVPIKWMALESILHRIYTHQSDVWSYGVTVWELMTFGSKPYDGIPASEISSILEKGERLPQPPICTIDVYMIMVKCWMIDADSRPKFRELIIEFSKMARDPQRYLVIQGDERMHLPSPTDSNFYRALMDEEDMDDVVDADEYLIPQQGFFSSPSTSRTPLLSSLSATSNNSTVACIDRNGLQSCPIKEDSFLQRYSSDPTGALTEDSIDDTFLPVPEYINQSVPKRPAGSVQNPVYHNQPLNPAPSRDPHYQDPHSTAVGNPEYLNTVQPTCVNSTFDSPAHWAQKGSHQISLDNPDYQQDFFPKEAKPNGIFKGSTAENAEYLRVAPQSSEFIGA
How it was run: as §1

[13] = BaF3 cells, EGFR DEL19-C797S, read-out: DEL19-C797S/BaF3 GI50
[14] = BaF3 cells, EGFR DEL19-T790-C797S, read-out: DEL19-T790-C797S/BaF3 GI50
[15] = BaF3 cells, EGFR L858R, read-out: L858R/BaF3 GI50
[16] = BaF3 cells, EGFR L858R-C797S, read-out: L858R-C797S/BaF3 GI50
[17] = BaF3 cells, EGFR L858R-T790-C797S, read-out: L858R-T790-C797S/BaF3 GI50
[18] = BaF3 cells, EGFR L858R-T790M, read-out: L858R-T790M/BaF3 GI50
[19] = EGFR DEL19-T790M, read-out: DEL19-T790M GI50
[20] = Homo sapiens, A-431, A-431 cells
[21] = Mus musculus, BaF3, 72 h, BaF3 cells, EGFR DEL19-C797S, read-out: DEL19-C797S/BaF3 GI50
[22] = Mus musculus, BaF3, 72 h, BaF3 cells, EGFR DEL19-T790-C797S, read-out: DEL19-T790-C797S/BaF3 GI50
[23] = Mus musculus, BaF3, 72 h, BaF3 cells, EGFR L858R, read-out: L858R/BaF3 GI50
[24] = Mus musculus, BaF3, 72 h, BaF3 cells, EGFR L858R-C797S, read-out: L858R-C797S/BaF3 GI50
[25] = Mus musculus, BaF3, 72 h, BaF3 cells, EGFR L858R-T790-C797S, read-out: L858R-T790-C797S/BaF3 GI50
[26] = Mus musculus, BaF3, 72 h, BaF3 cells, EGFR L858R-T790M, read-out: L858R-T790M/BaF3 GI50
[27] = Mus musculus, BaF3, 72 h, EGFR DEL19-T790M, read-out: DEL19-T790M GI50

Row | Structure (SMILES) | IC50 [1] [nM] | IC50 [2] [nM] | IC50 [3] [nM] | GI50 [4] [nM] | IC50 [5] [nM] | IC50 [6] [nM] | IC50 [7] [nM] | IC50 [8] [nM] | IC50 [9] [nM] | GI50 ([10]; A-431 cells) [nM] | GI50 [11, 13] [nM] | GI50 [11, 14] [nM] | GI50 [11, 15] [nM] | GI50 [11, 16] [nM] | GI50 [11, 17] [nM] | GI50 [11, 18] [nM] | GI50 [11, 19] [nM] | IC50 [12] [nM] | GI50 ([4]; Homo sapiens, PC-9, 72 h) [nM] | GI50 [10, 20] [nM] | further results
1 | CN1CCN(c2ccc3c(c2)nc2n3C34CCC(CN(CCOc5c(cnn5C)-c5cc(cn(C)c5=O)C(=O)N2)C3)C4)CC1 (stereo not drawn) [Example A60B, 15,21-dimethyl-6-(4-methylpiperazin-1-yl)-23-oxa-2,9,11,15,20,21,26-heptaazaheptacyclo[24.4.1.1^{1,28}.1^{13,17}.0^{2,10}.0^{3,8}.0^{18,22}]tritriaconta-3,5,7,9,13,17(33),18(22),19-octaene-12,16-dione] | 135 | 44 | 49 | 15 | 4480 | 0.82 | 3.2 | 0.81 | 65 | 1340 | 1.4 | 4.4 | 21 | 15 | 8.4 | 53 | 6.9 | 1.7 | – | – | –
2 | C[C@@H]1CCCOc2c(cnn2C)-c2cc(cn(C)c2=O)C(=O)Nc2nc3ccc(N4CCN(C(=O)OC(C)(C)C)CC4)cc3n2C1 [Example A54] | 3040 | 10 | 213 | – | > 5000 | 31 | 118 | 31 | 887 | – | – | – | – | – | – | – | – | 41 | 245 | 1910 | GI50 [11, 21]: 32 nM; GI50 [11, 22]: 104 nM; GI50 [11, 23]: 192 nM; GI50 [11, 24]: 188 nM; GI50 [11, 25]: 228 nM; GI50 [11, 26]: 288 nM; GI50 [11, 27]: 153 nM
3 | CN1CCC2(CC1)CCN(c1ccc3nc4n(c3c1)C13CCC(CN(CCOc5c(cnn5C)-c5cc(cn(C)c5=O)C(=O)N4)C1)C3)C2 (single isomer, unassigned) [Example A88B] | 4.8 | 2.8 | 4.9 | 21 | 12 | 4.9 | 2.5 | 4.6 | 4.2 | 2200 | 0.63 | 1 | 0.84 | 3.4 | 1.7 | 8.8 | 1 | 2.2 | – | – | –
4 | C[C@@H]1CCCOc2c(cnn2C)-c2cc(cn(C)c2=O)C(=O)Nc2nc3ccc(N4CC(F)(CN(C)C)C4)cc3n2C1 [Example A58] | 26 | 22 | 34 | – | 220 | 16 | 9.2 | 15 | 19 | – | – | – | – | – | – | – | – | 4.9 | 325 | 1750 | GI50 [11, 21]: 2 nM; GI50 [11, 22]: 28 nM; GI50 [11, 23]: 29 nM; GI50 [11, 24]: 20 nM; GI50 [11, 25]: 37 nM; GI50 [11, 26]: 20 nM; GI50 [11, 27]: 20 nM
5 | CN(C)[C@@H]1CCN(c2ccc3nc4n(c3c2)C23CCC(CN(CCOc5c(cnn5C)-c5cc(cn(C)c5=O)C(=O)N4)C2)C3)C1 (single isomer, unassigned) [Example A66D] | 3.7 | 2.1 | 1.7 | 4.2 | 18 | 2 | 2.7 | 1.6 | 3.7 | – | 0.68 | 1.5 | 1.7 | 3.2 | 1.4 | 7.2 | 2 | 1.1 | – | 473 | –
6 | CN1CCC2(C1)CN(c1ccc3nc4n(c3c1)C13CCC(CN(CCOc5c(cnn5C)-c5cc(cn(C)c5=O)C(=O)N4)C1)C3)C2 (single isomer, unassigned) [Example A78B] | 2.4 | 1.4 | 2.4 | 2.4 | 11 | 2.7 | 1.2 | 1.6 | 2.2 | 434 | 0.51 | 0.82 | 0.87 | 0.74 | 0.9 | 1 | 0.75 | 0.91 | – | – | –
